Measured values reported in PMC4169885 (Biochemical pharmacology, 2014).

Experiments:
CYP2D6 = CYP2D6 (Homo sapiens, UniProt P10635); details: CYP2D6, R2 formation; ref [6], [34]; cited from earlier work
[1] = Plasma concentration-time profile of RTV and metabolites; format: in vivo; details: human, 400 mg bid
CYP3A4 = details: ref [27] [11]; cited from earlier work
CYP2J2 [2] = target: T1, CYP2J2 (Homo sapiens, UniProt P51589); details: CYP2J2, linear scaled according to kinact/KI (SCHH approach)
T1 sequence (P51589 1-502): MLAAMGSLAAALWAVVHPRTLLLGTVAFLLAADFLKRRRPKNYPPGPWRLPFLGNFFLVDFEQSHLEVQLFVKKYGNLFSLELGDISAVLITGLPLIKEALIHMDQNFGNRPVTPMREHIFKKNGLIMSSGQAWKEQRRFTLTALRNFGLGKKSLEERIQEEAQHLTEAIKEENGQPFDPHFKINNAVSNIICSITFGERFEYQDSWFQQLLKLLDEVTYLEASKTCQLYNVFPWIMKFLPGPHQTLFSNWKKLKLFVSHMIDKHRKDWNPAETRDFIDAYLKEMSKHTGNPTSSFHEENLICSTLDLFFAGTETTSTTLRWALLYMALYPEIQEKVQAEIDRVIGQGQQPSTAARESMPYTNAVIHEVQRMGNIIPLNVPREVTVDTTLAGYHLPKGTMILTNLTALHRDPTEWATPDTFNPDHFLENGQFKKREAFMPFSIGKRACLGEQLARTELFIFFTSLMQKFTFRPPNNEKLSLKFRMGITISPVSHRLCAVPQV

CYP2J2 [3] = target: T1, CYP2J2; assay: in vitro; details: recombinant enzyme
CYP2J2 [4] = details: projected; ref [14]; cited from earlier work

Sequence of CYP2D6 (P10635 whole entry): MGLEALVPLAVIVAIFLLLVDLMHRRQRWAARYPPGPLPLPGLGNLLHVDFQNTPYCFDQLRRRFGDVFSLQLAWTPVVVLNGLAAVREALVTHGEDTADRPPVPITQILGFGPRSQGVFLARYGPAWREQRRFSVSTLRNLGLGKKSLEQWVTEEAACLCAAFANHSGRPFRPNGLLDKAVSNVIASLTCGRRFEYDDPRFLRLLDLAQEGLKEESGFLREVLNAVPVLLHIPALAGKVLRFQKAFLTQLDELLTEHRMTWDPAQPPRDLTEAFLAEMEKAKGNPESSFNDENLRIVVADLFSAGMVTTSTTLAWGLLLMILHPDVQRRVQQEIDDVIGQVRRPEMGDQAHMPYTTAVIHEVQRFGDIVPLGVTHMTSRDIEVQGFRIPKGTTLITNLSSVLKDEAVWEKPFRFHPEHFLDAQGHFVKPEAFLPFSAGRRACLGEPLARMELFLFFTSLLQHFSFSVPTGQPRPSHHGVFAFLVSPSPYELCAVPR

In the case of `CC(C)c1nc(CN(C)C(=O)N[C@H](C(=O)N[C@@H](Cc2ccccc2)C[C@H](O)[C@H](Cc2ccccc2)NC(=O)OCc2cncs2)C(C)C)cs1` [RTV, Ritonavir], the Km (CYP2D6) is given as 1.6 µM, the Cmax [1] is given as 4.8 µM and the “slope at 1 μM” value (CYP3A4) is given as 0.17 ^2 μM min^-1. For the same molecule, the “slope at 1 μM” value (CYP2J2 [2]) was 0.0044 ^4 μM min^-1.
`C#C[C@]1(O)CC[C@H]2[C@@H]3CCC4=Cc5oncc5C[C@]4(C)[C@H]3CC[C@@]21C` [danazol] gave an inhibition at 5 min (CYP2J2 [3]) of 95%.
For `CC(C)(C)c1ccc(C(=O)CCCN2CCC(OC(c3ccccc3)c3ccccc3)CC2)cc1` [ebastine], the “contribution of CYP2J2 to intestinal ebastine hydroxylation” value (CYP2J2 [4]) is given as no more than 70%.
